From PMC10053623, “Water-Soluble Fullerene C60 Derivatives Are Effective Inhibitors of Influenza Virus Replication” (Microorganisms, 2023)

Tests used:
[1] = system: Influenza A/Puerto Rico/8/34 (H1N1) virus; experiment: microbe, parasite or virus in culture; type: cell-based
[2] = in vitro; settings: dog

## CCC(CC)O[C@@H]1C=C(C(=O)O)C[C@H](N)[C@H]1NC(C)=O [Oseltamivir carboxylate]
[1]
  SI, selectivity index, the ratio of CC50 to IC50: >667
[1]; Influenza A virus, H1N1, MDCK, 72 h, read-out: IC50, inhibitory concentration causing a 50% decrease in virus-induced cell death
  IC50: 300 ± 20 nM
[2]
  CC50 at 72 h: > 200000 nM
